Where “and” joins values, the source holds several entries; their conditions need not be identical. Equal entries are not always repeated.
Test system: SW1271 complex spheroids with HUVEC/MSC, growth, % test/control
Experiment: Anticancer human tumor SW1271 cell line growth inhibition [AhR];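 further: spheroids exposed to agents for 7 days before readout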
Conditions: for viability, T/C: stronger effect = lower value
Summary of the method: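 Complex tumor spheroids co-cultured with HUVEC and human MSC stroma; AhR antagonists tested in combination with standard-of-care and investigational agents. Top concentration at or near clinical Cmax (else 10 microM), half-log dilutions; growth expressed as percent test/control.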

[1] = curve of first compound, second compound 0.1 µM
[2] = curve of first compound, second compound 0.316 µM
[3] = curve of first compound, second compound 1 µM
[4] = curve of first compound, second compound 3.16 µM
[5] = curve of first compound, second compound 10 µM
[6] = second compound 0.1 µM, first compound 0.0316 µM
[7] = second compound 0.1 µM, first compound 0.1 µM
[8] = second compound 0.1 µM, first compound 0.316 µM
[9] = second compound 0.1 µM, first compound 1 µM
[10] = second compound 0.1 µM, first compound 3.16 µM
[11] = second compound 0.1 µM, first compound 10 µM
[12] = second compound 0.316 µM, first compound 0.0316 µM
[13] = second compound 0.316 µM, first compound 0.1 µM
[14] = second compound 0.316 µM, first compound 0.316 µM
[15] = second compound 0.316 µM, first compound 1 µM
[16] = second compound 0.316 µM, first compound 3.16 µM
[17] = second compound 0.316 µM, first compound 10 µM
[18] = second compound 1 µM, first compound 0.0316 µM
[19] = second compound 1 µM, first compound 0.1 µM
[20] = second compound 1 µM, first compound 0.316 µM
[21] = second compound 1 µM, first compound 1 µM
[22] = second compound 1 µM, first compound 3.16 µM
[23] = second compound 1 µM, first compound 10 µM
[24] = second compound 3.16 µM, first compound 0.0316 µM
[25] = second compound 3.16 µM, first compound 0.1 µM
[26] = second compound 3.16 µM, first compound 0.316 µM
[27] = second compound 3.16 µM, first compound 1 µM
[28] = second compound 3.16 µM, first compound 3.16 µM
[29] = second compound 3.16 µM, first compound 10 µM
[30] = second compound 10 µM, first compound 0.0316 µM
[31] = second compound 10 µM, first compound 0.1 µM
[32] = second compound 10 µM, first compound 0.316 µM
[33] = second compound 10 µM, first compound 1 µM
[34] = second compound 10 µM, first compound 3.16 µM
[35] = second compound 10 µM, first compound 10 µM

Structure (SMILES)	IC50 [1] [µM]	IC50 [2] [µM]	IC50 [3] [µM]	IC50 [4] [µM]	IC50 [5] [µM]	viability, T/C [6] [%]	viability, T/C [7] [%]	viability, T/C [8] [%]	viability, T/C [9] [%]	viability, T/C [10] [%]	viability, T/C [11] [%]	viability, T/C [12] [%]	viability, T/C [13] [%]	viability, T/C [14] [%]	viability, T/C [15] [%]	viability, T/C [16] [%]	viability, T/C [17] [%]	viability, T/C [18] [%]	viability, T/C [19] [%]	viability, T/C [20] [%]	also measured
Nc1ncn(C2CC(O)C(CO)S2)c(=O)n1 (configuration not stated)																					viability, T/C (compound 0.000949 µM): 87.6% and 102% and 94.9%; viability, T/C (compound 0.003 µM): 97.8% and 95.9% and 114%; viability, T/C (compound 0.00949 µM): 85.7% and 82.9% and 113%; viability, T/C (compound 0.03 µM): 94.8% and 90.3% and 103%; viability, T/C (compound 0.0949 µM): 89.2% and 85.8% and 94.6%; viability, T/C (compound 0.3 µM): 78.8% and 82.7% and 78.6%; IC50 (curve of compound): > 0.3 µM
COc1ccc([C@@H](O)c2cc(-c3ncnc4cc(N5CCOCC5)ccc34)c(F)cc2Cl)nn1 + Cc1cncc(-c2nc(NCCc3c[nH]c4ccccc34)c3ncn(C(C)C)c3n2)c1	1.85	3.9	2.89	5.06	< 0.0316	82.7	93.6	83.2	56.7	47.9	36.7	87.3	96.7	75.1	72.7	52.2	36.9	91.3	87.3	93.3	viability, T/C [21]: 68.2%; viability, T/C [22]: 50.8%; viability, T/C [23]: 36.3%; viability, T/C [24]: 81.6%; viability, T/C [25]: 99%; viability, T/C [26]: 81.9%; viability, T/C [27]: 70.1%; viability, T/C [28]: 55.8%; viability, T/C [29]: 43.2%; viability, T/C [30]: 45.5%; viability, T/C [31]: 43.3%; viability, T/C [32]: 41.5%; viability, T/C [33]: 36%; viability, T/C [34]: 22.1%; viability, T/C [35]: 18.1%
Nc1ccn(C2OC(CO)C(O)C2(F)F)c(=O)n1 (configuration not stated) + CC(CO)NC(=O)c1cc(-c2ccc(Cl)cc2)nn(-c2cnn(C)c2)c1=O	> 10	2.07	> 10	3.71	5.27	59	55	52.6	60.9	54.9	63.9	56.5	59.8	46.3	50.3	54.9	46.1	53.1	60.3	59	viability, T/C [21]: 61.2%; viability, T/C [22]: 53.6%; viability, T/C [23]: 55.3%; viability, T/C [24]: 48.4%; viability, T/C [25]: 58.7%; viability, T/C [26]: 56.1%; viability, T/C [27]: 59.4%; viability, T/C [28]: 47.8%; viability, T/C [29]: 42.4%; viability, T/C [30]: 45.3%; viability, T/C [31]: 58.1%; viability, T/C [32]: 57.4%; viability, T/C [33]: 59.8%; viability, T/C [34]: 54.5%; viability, T/C [35]: 44%

From PubChem BioAssay AID1919017 (Molecular Pharmacology Branch, DTP, NCI, 2023)
